Columns and labels:
[1] = test system: GM130 (cis-Golgi marker) in Hela cells; experiment: Immunostaining and confocal microscopy of Hela cells; assay type: cell-based, human; conditions: for Reversibility of GM130 dispersion: 50 μM 30 min, then 30 min in fresh medium; for Dispersion of GM130 marker: 50 μM, 30 min
Protocol: (§1) FIG. 1. Bragsin2 affects Arf pathways in cells • a. Chemical structures of Bragsin1 and Bragsin2 and derivatives used in this study. Chemical synthesis and structural characterization of the compounds are described in example 6. • b. Bragsin2 disperses the TGN46 and GM130 markers. HeLa cells were treated with either DMSO (0.25%) or Bragsin2 (50 μM) for 30 min, immunostained for TGN46, GM130 or EEA1 (green channel) and analysed by confocal microscopy. Dispersion of GM130 and TGN46 by Bragsin2 is reversible. Hela cells were treated as in FIG. 1a and were incubated for an additional 30 min in fresh medium (wash panel) prior to immunostaining and confocal microscopy analysis. Expression of Arf-mCherry constructs carrying an activating mutation rescues the effect of Bragsin2. Hela cells were transfected with constitutively active Q/L mutants of Arf-mCherry. Note the difference between non-transfected cells (white asterisk) and transfected cells. Scale bars, 10 μm.
(§2) Hela cells were grown in Dulbecco's modified Eagle's medium supplemented with Glutamax™ and 10% fetal bovine serum (Invitrogen). For immunofluorescence studies, cells were grown on Labtek glass slides (Nunc) and transfected for 18 to 24 h using Lipofectamine 2000 (Invitrogen), according to the supplier's instructions. When specified, cells were treated with the indicated concentration of small molecule or corresponding volume of vehicle (DMSO) in growth medium for 30 min at 37° C.
(§3) Immunostaining procedure was as described in (Viaud, J. et al. Structure-based discovery of an inhibitor of Arf activation by Sec7 domains through targeting of protein-protein complexes. Proc Natl Acad Sci USA 104, 10370-5 (2007)) except that secondary antibody incubation was performed for 1h using Alexa 488-conjugated goat anti-mouse (1:600) or donkey anti-sheep (1:500) IgG and Alexa 647-conjugated phalloidin (1:100). Anti-GM130 was used at dilution 1:200. Images were bidirectionally recorded using an inverted Leica TCS SP8 laser-scanning confocal microscope with a 100× (N. A. 1.40) oil objective (HCX APO, Leica). Fluorochromes were detected sequentially using excitation laser lines at 488 nm (Alexa 488), 594 nm (mCherry) and 633 nm (Alexa 647). Stacks were generated using a z-step of 0.5 μm and processed using Fiji/ImageJ (Schindelin, J. et al. Fiji: an open-source platform for biological-image analysis. Nat Methods 9, 676-82 (2012)). Images are representative of at least two independent experiments.

[2] = test system: TGN46 (trans-Golgi network marker) in Hela cells; experiment: as above; assay type: cell-based, human; conditions: for Reversibility of TGN46 dispersion / Dispersion of TGN46 marker: Hela cells; for Reversibility of TGN46 dispersion: 50 μM 30 min, then 30 min in fresh medium; for Dispersion of TGN46 marker: 50 μM, 30 min; for Rescue of compound-induced TGN46 dispersion by constitutively active Arf1, Arf5, Arf6 Q/L-mCherry: transfected Hela cells
Protocol: as §1, §2, §3

| SMILES | Reversibility of GM130 dispersion [1] | Dispersion of GM130 marker [1] | Reversibility of TGN46 dispersion [2] | Dispersion of TGN46 marker [2] | Rescue of compound-induced TGN46 dispersion by constitutively active Arf1, Arf5, Arf6 Q/L-mCherry [2] |
| --- | --- | --- | --- | --- | --- |
| Cc1ccc2oc(C(F)(F)F)cc(=O)c2c1[N+](=O)[O-] [Bragsin1, 6-methyl-5-nitro-2-(trifluoromethyl)-4H-chromen-4-one] | reversible | disperses | reversible | disperses | rescues |
| COc1ccc2oc(C(F)(F)F)cc(=O)c2c1[N+](=O)[O-] [Bragsin2, 6-methoxy-5-nitro-2-(trifluoromethyl)-4H-chromen-4-one] | reversible | disperses | reversible | disperses | rescues |
